Experiment [1] concerns the target T1, LPA2 receptor (Homo sapiens, UniProt Q9HBW0). As to the kind of experiment: Heterologous (PMA) / homologous (LPA) desensitization of LPA-induced calcium response, LPA2 cells. The experiment is classed as cell-based. The note with it: preincubation 10 min, washed, challenge 1 μM LPA, LPA2 cells. As for the experimental part:
(§1) This procedure has been described previously. Briefly, cells were loaded with 2.5 μM Fura-2 AM in Krebs–Ringer–Hepes containing 0.05% bovine serum albumin (pH 7.4) for 1 h at 37°C and then washed to eliminate unincorporated indicator. Determinations were carried in an AMINCO-Bowman Series 2 luminescence spectrometer, employing 340 and 380 nm excitation wavelengths and an emission wavelength of 510 nm; chopper interval was 0.5 sec. The intracellular calcium concentration was calculated as described by Grynkiewicz et al.. In the experiments where prolonged incubation was required (resensitization studies), cells were stimulated, washed, and the incubation was continued in the presence of Fura-2 AM, to avoid dye depletion.
(§2) Agonists-mediated decreases occurred in a concentration-dependent fashion, with a maximum at the concentration of ~ 100 nM. […] It is worth noticing that the shift in the curves was more pronounced in LPA1- or LPA3-expressing cells, than in those that expressed the LPA2 subtype.
(§3) Plotted are the increases in calcium as the percentage of that obtained in cells preincubated without any agent as mean ± S. E. M. of 6 experiments using different cell preparations.

In experiment [2] the target is T2, LPA3 receptor (Homo sapiens, UniProt Q9UBY5).
T2 sequence (Q9UBY5 1-353): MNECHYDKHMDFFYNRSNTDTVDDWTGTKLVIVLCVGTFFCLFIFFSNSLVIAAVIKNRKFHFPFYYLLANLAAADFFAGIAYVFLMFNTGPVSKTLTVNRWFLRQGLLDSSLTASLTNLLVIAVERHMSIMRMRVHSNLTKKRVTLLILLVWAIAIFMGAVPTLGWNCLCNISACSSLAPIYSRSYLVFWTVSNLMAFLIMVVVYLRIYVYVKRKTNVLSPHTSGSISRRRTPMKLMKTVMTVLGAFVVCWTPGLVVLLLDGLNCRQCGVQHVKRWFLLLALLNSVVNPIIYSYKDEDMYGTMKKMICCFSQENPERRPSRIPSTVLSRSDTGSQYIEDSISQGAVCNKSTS
Briefly: LPA3 receptor internalization, confocal imaging. The experiment is classed as cell-based. The note with it: LPA3 cells. As for the experimental part: (§4) Cells were seeded at approximately 30% confluence onto glass-bottomed Petri dishes and cultured for 3 h at 37°C in media containing 1% serum. After treatment, cells were washed three times with phosphate buffered saline and fixed with 4% paraformaldehyde in 0.1 M phosphate buffer for 20 min at room temperature; samples were then washed three additional times with phosphate buffered saline. The fluorescent images were acquired with an Olympus Fluoview FV10 confocal microscope with a water-immersion objective (60X). To determine receptor internalization, the plasma membrane was delineated utilizing the differential interference contrast imaging, and fluorescence in this region was quantified employing the ImageJ software. At least 5 or 6 images of different cultures were taken for each condition. Data were normalized as follows: for each experiment, fluorescence (arbitrary units) at the plasma membrane of baseline samples were pooled and the average was considered as 100%.

Experiment [3] has as its target T3, LPA1 receptor (Mus musculus, UniProt P61793).
T3 construct: expressed in transfected cells
Briefly: LPA1 receptor internalization, confocal imaging. It counts as cell-based. The settings on record: LPA1 cells. As for the experimental part:
as §4

Experiment [4] has as its target T2, LPA3 receptor. As to the kind of experiment: Heterologous (PMA) / homologous (LPA) desensitization of LPA-induced calcium response, LPA3 cells. It counts as cell-based. The settings on record: preincubation 10 min, washed, challenge 1 μM LPA, LPA3 cells. How it is done:
as §1, §2, §3

Experiment [5] deals with T3, LPA1 receptor. As to the kind of experiment: LPA1 receptor phosphorylation ([32P]Pi labeling, immunoprecipitation). The experiment is classed as cell-based. How it is done:
(§5) The procedure was very similar to that previously described to study LPA1 receptor phosphorylation. In brief, cells were incubated in phosphate-free Dulbecco’s modified Eagle’s medium containing 100 μCi/ml [^32P]Pi for 3 h at 37°C. LPA1- and LPA2-expressing cells were cultured in 6 well plates, whereas those expressing LPA3 receptors were cultured in 10 cm dishes. Labeled cells were stimulated with the agents tested and then washed twice with ice-cold phosphate buffered saline and solubilized in buffer containing 10 mM Tris, 150 mM NaCl, 1% sodium cholate, 1% Nonident P40, protease and phosphatase inhibitors, pH 7.4 [11, 12, 14]. The lysates were incubated overnight with protein A-agarose and anti-GFP serum with constant agitation at 4°C. Samples were washed and the pellets containing the immunocomplexes were solubilized in Laemmli’s sample buffer containing 5% β-mercaptoethanol. Proteins were separated using 10% SDS-PAGE and electrotransferred onto polyvinyliden fluoride membranes. Receptor phosphorylation was analyzed with a Molecular Dynamics Typhoon PhosphorImager and the ImageJ software (http://rsb.info.nih.gov/ij/).

Experiment [6] concerns the target T2, LPA3 receptor. As to the kind of experiment: LPA3 receptor phosphorylation ([32P]Pi labeling, immunoprecipitation). It counts as cell-based.
For the next experiment, the system named is ERK 1/2. As to the kind of experiment: ERK 1/2 phosphorylation (Western blotting) in C9 cells overexpressing LPA1-3. The experiment is classed as cell-based, rat. The settings on record: 1 μM LPA, 5 min, cells overexpressing LPA1-3. As for the experimental part:
Cells were cultured to near confluence in 6 well plates and stimulated with the agents tested for the times indicated. Total cellular extracts were obtained by lysing the cells in Laemmli’s sample buffer containing 5% β-mercaptoethanol. The cell extracts were subject to 10% SDS-PAGE and transferred to nitrocellulose membranes. Membranes from samples obtained in parallel were incubated overnight at 4°C, with anti-pERK 1/2 (1:2000) or anti ERK 1/2 (1:2000). The membranes were washed and incubated for 1 h at room temperature with a horseradish peroxidase-conjugated secondary antibody (1:10,000) for enhanced chemiluminescence detection.

Experiment [7] deals with T1, LPA2 receptor. As to the kind of experiment: LPA2 receptor phosphorylation ([32P]Pi labeling, immunoprecipitation). It counts as cell-based. How it is done: as §5
Setting [8] is: 1 μM LPA 10 min, washed, incubated to 60 or 120 min.

The structures appear in SMILES notation. pEC50: −log10 of the molar value.

By pEC50 is commonly meant the negative decadic logarithm of the EC50, by convention in mol/L.

T3 sequence (P61793 whole entry): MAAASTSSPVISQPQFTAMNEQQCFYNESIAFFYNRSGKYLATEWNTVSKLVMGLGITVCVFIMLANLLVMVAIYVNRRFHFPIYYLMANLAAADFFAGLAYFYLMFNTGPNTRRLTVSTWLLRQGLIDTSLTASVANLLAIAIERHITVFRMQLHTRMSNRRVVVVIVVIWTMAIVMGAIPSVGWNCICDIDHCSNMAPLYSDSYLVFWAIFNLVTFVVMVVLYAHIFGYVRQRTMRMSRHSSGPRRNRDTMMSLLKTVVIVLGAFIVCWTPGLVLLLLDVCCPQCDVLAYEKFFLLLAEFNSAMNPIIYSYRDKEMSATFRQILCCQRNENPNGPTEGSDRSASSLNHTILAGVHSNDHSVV
T1 sequence (Q9HBW0 whole entry): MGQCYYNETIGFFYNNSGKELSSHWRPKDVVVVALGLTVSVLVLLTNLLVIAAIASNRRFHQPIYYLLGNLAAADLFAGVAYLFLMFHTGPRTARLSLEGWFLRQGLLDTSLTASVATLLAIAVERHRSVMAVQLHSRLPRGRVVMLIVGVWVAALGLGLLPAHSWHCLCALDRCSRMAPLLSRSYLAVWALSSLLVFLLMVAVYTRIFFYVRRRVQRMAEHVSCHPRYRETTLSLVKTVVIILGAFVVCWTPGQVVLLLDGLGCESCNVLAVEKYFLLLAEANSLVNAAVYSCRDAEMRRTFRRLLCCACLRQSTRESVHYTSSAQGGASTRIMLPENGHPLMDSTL

Turning to `CCCCCCCC/C=C\CCCCCCCC(=O)OC[C@@H](O)COP(=O)(O)O` [LPA], the “concentration giving maximum homologous desensitization” value on LPA2 receptor [1] and on LPA3 receptor [4] was ~ 100 nM each time. The “recovery of fluorescence at the membrane level after washing” value on LPA3 receptor [2] (setting [8]) was “only partially and also slowly”; on LPA1 receptor [3] (setting [8]) it was “recovered rapidly and completely”. Besides, the “receptor internalization (fluorescence at the plasma membrane)” value at LPA3 receptor [2] (1 μM agent, 30 or 60 min) was “markedly decreasing fluorescence at the plasma membrane level”; on LPA1 receptor [3] (1 μM agent, 30 or 60 min) it was “markedly decreasing fluorescence at the plasma membrane level”. In addition, the “time to maximum receptor phosphorylation” value on LPA1 receptor [5] (1 μM agent, LPA1 cells) was no more than 15 min; at LPA3 receptor [6] (1 μM agent, LPA3 cells) it was no more than 15 min; at LPA2 receptor [7] (1 μM agent, LPA2 cells), no more than 15 min. Besides, the “concentration at which receptor phosphorylation saturates” value on LPA1 receptor [5] (15 min incubation, LPA1-overexpressing cells) is reported as ~ 1 μM; at LPA3 receptor [6] (15 min incubation, LPA3-overexpressing cells), ~ 1 μM. Further, on LPA1 receptor [5] (15 min incubation, LPA1-overexpressing cells, read-out: EC50, receptor phosphorylation), the pEC50 was 7.52 to 8.00. In addition, the “increase in ERK phosphorylation” value in the experiment on ERK 1/2 was ~ 2 fold. Also, on LPA2 receptor [7] (15 min incubation, LPA2-overexpressing cells, shift to higher concentrations), the “concentration-response curve, receptor phosphorylation” value is listed as “no clear saturation was obtained”.

Source of the values: paper PMC4608732, “Phosphorylation and Internalization of Lysophosphatidic Acid Receptors LPA1, LPA2, and LPA3” (PLoS ONE, 2015).
